We go through 15 compounds from patent US20250250230A1, “HETEROCYCLIC COMPOUND” (TAKEDA PHARMACEUTICAL COMPANY LIMITED, priority 2022, published 2025).

This experiment has as its target T1, human orexin type 2 receptor (Homo sapiens, UniProt O43614).
T1 construct: expressed in transfected cells
T1 sequence (O43614 1-444): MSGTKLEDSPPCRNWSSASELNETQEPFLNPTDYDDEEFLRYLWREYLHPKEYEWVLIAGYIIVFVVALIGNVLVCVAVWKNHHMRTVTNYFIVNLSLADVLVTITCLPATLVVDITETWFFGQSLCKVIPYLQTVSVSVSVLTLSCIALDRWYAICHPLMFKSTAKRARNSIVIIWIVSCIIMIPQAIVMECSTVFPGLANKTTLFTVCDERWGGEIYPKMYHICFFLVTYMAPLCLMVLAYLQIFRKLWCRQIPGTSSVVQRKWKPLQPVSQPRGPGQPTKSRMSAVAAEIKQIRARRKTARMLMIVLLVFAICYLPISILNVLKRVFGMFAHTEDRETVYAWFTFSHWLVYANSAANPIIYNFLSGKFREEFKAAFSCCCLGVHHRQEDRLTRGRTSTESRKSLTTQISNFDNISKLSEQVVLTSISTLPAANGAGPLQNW
Kind of experiment: Measurement of orexin type 2 receptor agonist activity (calcium fluorescence, Fluo-4 AM, FDSS). Conditions: test compound 3 μM; CHO cells expressing human OX2 receptor; DMSO = 0%, orexin A (human) = 100%. Format: cell-based. In a few lines: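 CHO-K1 cells stably expressing human OX2R were loaded with Fluo-4 AM (30 min 37 °C, 30 min RT) in HEPES-buffered HBSS with 0.1% BSA and probenecid. Calcium fluorescence was followed on FDSS for 2 min after compound addition; activity normalised to DMSO (0%) and 10 nM orexin A (100%).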

Take `Cc1scc(-c2c(F)cccc2F)c1C1CC1C(=O)N1CCC(NS(C)(=O)=O)C1` (racemic) [Example 329, a mixture of rac-N-[(3R)-1-{(1R,2R)-2-[4-(2,6-difluorophenyl)-2-methylthiophen-3-yl]cyclopropane-1-carbonyl}pyrrolidin-3-yl]methanesulfonamide and rac-N-[(3S)-1-{(1R,2R)-2-[4-(2,6-difluorophenyl)-2-methylthiophen-3-yl]cyclopropane-1-carbonyl}pyrrolidin-3-yl]methanesulfonamide]: the “OX2R agonist activity (3 μM, %)” value stood at 91%. Regarding `CS(=O)(=O)N[C@H]1CCN(C(=O)C2CC2c2c(F)cccc2-c2c(F)cccc2F)C1` (single isomer, unassigned) [Example 195, N-{(3S)-1-[(1R,2R)-2-(2′,3,6′-trifluoro[1,1′-biphenyl]-2-yl)cyclopropane-1-carbonyl]pyrrolidin-3-yl}methanesulfonamide, or N-{(3S)-1-[(1S,2S)-2-(2′,3,6′-trifluoro[1,1′-biphenyl]-2-yl)cyclopropane-1-carbonyl]pyrrolidin-3-yl}methanesulfonamide], the “OX2R agonist activity (3 μM, %)” value turned out to be 99%. As for `CS(=O)(=O)N[C@H]1CCN(C(=O)C2CC2c2ccc(F)cc2-c2c(F)cccc2F)C1` (single isomer, unassigned) [Example 200, N-{(3S)-1-[(1R,2R)-2-(2′,5,6′-trifluoro[1,1′-biphenyl]-2-yl)cyclopropane-1-carbonyl]pyrrolidin-3-yl}methanesulfonamide, or N-{(3S)-1-[(1S,2S)-2-(2′,5,6′-trifluoro[1,1′-biphenyl]-2-yl)cyclopropane-1-carbonyl]pyrrolidin-3-yl}methanesulfonamide], the “OX2R agonist activity (3 μM, %)” value is given as 103%.

For the compound `CS(=O)(=O)N[C@H]1CCN(C(=O)C2CC2(F)c2ccccc2-c2c(F)cccc2F)C1` (single isomer, unassigned) [Example 304, N-{(3S)-1-[(1S,2S)-2-(2′,6′-difluoro [1,1′-biphenyl]-2-yl)-2-fluorocyclopropane-1-carbonyl]pyrrolidin-3-yl}methanesulfonamide, or N-{(3S)-1-[(1R,2R)-2-(2′,6′-difluoro[1,1′-biphenyl]-2-yl)-2-fluorocyclopropane-1-carbonyl]pyrrolidin-3-yl}methanesulfonamide], the “OX2R agonist activity (3 μM, %)” value stood at 93%.

Turning to `CS(=O)(=O)N[C@H]1CCCN(C(=O)C2CC2(F)c2ccccc2-c2c(F)cccc2F)C1` (single isomer, unassigned) [Example 306, N-{(3S)-1-[(1S,2S)-2-(2′,6′-difluoro [1,1′-biphenyl]-2-yl)-2-fluorocyclopropane-1-carbonyl]piperidin-3-yl}methanesulfonamide, or N-{(3S)-1-[(1R,2R)-2-(2′,6′-difluoro[1,1′-biphenyl]-2-yl)-2-fluorocyclopropane-1-carbonyl]piperidin-3-yl}methanesulfonamide], the “OX2R agonist activity (3 μM, %)” value is recorded as 93%. The value for `CCS(=O)(=O)NC[C@@H]1CCN1C(=O)[C@@H]1C[C@@]1(F)c1ccccc1-c1c(F)cccc1F` (single isomer, unassigned) [Example 351, N-({(2R)-1-[(1S,2S)-2-(2′,6′-difluoro[1,1′-biphenyl]-2-yl)-2-fluorocyclopropane-1-carbonyl]azetidin-2-yl}methyl)ethanesulfonamide, or N-({(2S)-1-[(1S,2S)-2-(2′,6′-difluoro[1,1′-biphenyl]-2-yl)-2-fluorocyclopropane-1-carbonyl]azetidin-2-yl}methyl)ethanesulfonamide] was 101%; that for `CN(C)S(=O)(=O)NCC1CN(C(=O)[C@@H]2C[C@H]2c2ccccc2-c2c(F)cccc2F)CCO1` (stereo in doubt) [Example 284, N′-({(2R)-4-[(1R,2R)-2-(2′,6′-difluoro[1,1′-biphenyl]-2-yl)cyclopropane-1-carbonyl]morpholin-2-yl}methyl)-N,N-dimethylsulfuric diamide] was 94%; that for `COC[C@@H]1CN(C(=O)[C@@H]2C[C@@]2(F)c2ccccc2-c2c(F)cccc2F)C1CNS(C)(=O)=O` (stereo in doubt) [Example 399, N-{[(2R,3R)-1-[(1S,2S)-2-(2′,6′-difluoro[1,1′-biphenyl]-2-yl)-2-fluorocyclopropane-1-carbonyl]-3-(methoxymethyl)azetidin-2-yl]methyl}methanesulfonamide] was 95%. `CS(=O)(=O)N[C@H]1CCN(C(=O)[C@@H]2C[C@H]2c2ccccc2-c2c(F)cccc2F)C1` [Example 23, N-{(3S)-1-[(1R,2R)-2-(2′,6′-difluoro[1,1′-biphenyl]-2-yl)cyclopropane-1-carbonyl]pyrrolidin-3-yl}methanesulfonamide]: the “OX2R agonist activity (3 μM, %)” value is given as 105%. As to `CS(=O)(=O)N[C@H]1CCCN(C(=O)[C@@H]2C[C@H]2c2ccccc2-c2c(F)cccc2F)C1` [Example 24, N-{(3S)-1-[(1R,2R)-2-(2′,6′-difluoro [1,1′-biphenyl]-2-yl)cyclopropane-1-carbonyl]piperidin-3-yl}methanesulfonamide], the “OX2R agonist activity (3 μM, %)” value is listed as 95%.

`CS(=O)(=O)N[C@H]1CCCN(C(=O)[C@@H]2C[C@H]2c2ccccc2-c2c(F)cccc2F)CC1` [Example 25, N-{(4S)-1-[(1R,2R)-2-(2′,6′-difluoro[1,1′-biphenyl]-2-yl)cyclopropane-1-carbonyl]azepan-4-yl}methanesulfonamide]: the “OX2R agonist activity (3 μM, %)” value is listed as 93%.

Turning to `CS(=O)(=O)NC1CN(C(=O)C2CC2c2ccccc2-c2c(F)cccc2F)CC1(F)F` (stereo not drawn) [Example 180, N-{1-[2-(2′,6′-difluoro[1,1′-biphenyl]-2-yl)cyclopropane-1-carbonyl]-4,4-difluoropyrrolidin-3-yl}methanesulfonamide optical isomer], the “OX2R agonist activity (3 μM, %)” value is recorded as 95%.

On to `CS(=O)(=O)N[C@H]1CCCN(C(=O)C2CC2c2c(F)cccc2-c2c(F)cccc2F)C1` (stereo partly drawn) [Example 196, N-{(3S)-1-[(1R,2R)-2-(2′,3,6′-trifluoro[1,1′-biphenyl]-2-yl)cyclopropane-1-carbonyl]piperidin-3-yl}methanesulfonamide, or N-{(3S)-1-[(1S,2S)-2-(2′,3,6′-trifluoro[1,1′-biphenyl]-2-yl)cyclopropane-1-carbonyl]piperidin-3-yl}methanesulfonamide], for which the “OX2R agonist activity (3 μM, %)” value was 101%. In the case of `CS(=O)(=O)N[C@H]1CCCN(C(=O)C2CC2c2ccc(F)cc2-c2c(F)cccc2F)C1` (stereo partly drawn) [Example 201, N-{(3S)-1-[(1R,2R)-2-(2′,5,6′-trifluoro[1,1′-biphenyl]-2-yl)cyclopropane-1-carbonyl]piperidin-3-yl}methanesulfonamide, or N-{(3S)-1-[(1S,2S)-2-(2′,5,6′-trifluoro[1,1′-biphenyl]-2-yl)cyclopropane-1-carbonyl]piperidin-3-yl}methanesulfonamide], the “OX2R agonist activity (3 μM, %)” value is reported as 101%. With `CS(=O)(=O)NC1CCN(C(=O)C2CC2c2c(F)cccc2-c2c(F)cccc2F)C1` (stereo not drawn) [Example 210, N-{1-[2-(2′,3,6′-trifluoro[1,1′-biphenyl]-2-yl)cyclopropane-1-carbonyl]pyrrolidin-3-yl}methanesulfonamide optical isomer], the “OX2R agonist activity (3 μM, %)” value worked out at 94%.
